Consider 29 molecules from patent US10336739B2, “4-hydroxy-3-(heteroaryl)pyridine-2-one APJ agonists” (BRISTOL-MYERS SQUIBB COMPANY, priority 2015, dated 2019).

pEC50: −log10 of the molar value.

human APJ receptor, sequence (P35414 whole entry): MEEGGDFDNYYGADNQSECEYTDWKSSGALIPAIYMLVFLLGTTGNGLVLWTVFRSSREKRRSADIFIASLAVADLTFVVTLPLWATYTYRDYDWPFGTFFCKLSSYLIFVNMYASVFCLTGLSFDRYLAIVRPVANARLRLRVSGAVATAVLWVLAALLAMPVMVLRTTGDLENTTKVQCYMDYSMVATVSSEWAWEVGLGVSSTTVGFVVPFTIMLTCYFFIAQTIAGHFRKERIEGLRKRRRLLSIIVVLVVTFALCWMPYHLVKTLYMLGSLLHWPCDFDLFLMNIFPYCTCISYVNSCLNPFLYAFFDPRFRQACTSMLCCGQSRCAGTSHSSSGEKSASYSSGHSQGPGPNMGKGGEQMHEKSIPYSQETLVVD

For one assay, the target named is human APJ receptor (Homo sapiens (Human), UniProt P35414). As to the kind of experiment: Intracellular cAMP accumulation assay (APJ hcAMP, HTRF). The settings on record: HEK293 cells stably expressing human APJ receptor; inhibition of forskolin-mediated cAMP production; read-out: Human APJ cAMP EC50 Potency range. The assay is classed as cell-based. The gist of the method:
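cAMP inhibition was quantified by HTRF against a cAMP standard curve, with EC50 fitted to a variable-slope sigmoidal curve. Compounds acted on 5,000 APJ-stable HEK293 cells for 30 minutes at room temperature alongside 2 μM forskolin and […] IBMX. Detection reagents were incubated 60 min.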
For `CCNCc1[nH]c(=O)c(-c2nnc(Cc3ccc(Cl)cn3)o2)c(O)c1-c1c(OC)cccc1OC` [Example 230, 3-{5-[(5-chloropyridin-2-yl)methyl]-1,3,4-oxadiazol-2-yl}-5-(2,6-dimethoxyphenyl)-6-[(ethylamino)methyl]pyridine-2,4-diol], the pEC50 was 8.00 to 11.00.

Turning to `CCOCc1nc(O)c(-c2nnc(Cc3noc4ccccc34)s2)c(O)c1-c1c(OC)cccc1OC` [Example 231, 3-{5-[(1,2-benzoxazol-3-yl)methyl]-1,3,4-thiadiazol-2-yl}-5-(2,6-dimethoxyphenyl)-6-(ethoxymethyl)pyridine-2,4-diol], the pEC50 is 7.00 to 8.00.

The assay is the same for the next values; noted with them: HEK293 cells stably expressing human APJ receptor; inhibition of forskolin-mediated cAMP production; read-out: hAPJ cAMP EC50 (nM) Potency range.
On to `CCOCc1nc(O)c(-c2nnc(Cc3ccc(Cl)cn3)s2)c(O)c1-c1c(OC)cccc1OC` [Example 232, 3-{5-[(5-chloropyridin-2-yl)methyl]-1,3,4-thiadiazol-2-yl}-5-(2,6-dimethoxyphenyl)-6-(ethoxymethyl) pyridine-2,4-diol], for which the EC50 was in the range of 0.01 to 10 nM.

Turning to `COc1cccc(OC)c1-c1c(C2CCCC2)nc(O)c(-c2nnc(Cc3ccc(Cl)cn3)s2)c1O` [Example 233, 3-{5-[(5-chloropyridin-2-yl)methyl]-1,3,4-thiadiazol-2-yl}-6-cyclopentyl-5-(2,6-dimethoxyphenyl) pyridine-2,4-diol], the EC50 is 10 to 100 nM.

Turning to `CCOCc1nc(O)c(-c2nnc(Cc3ccc(Cl)cc3)s2)c(O)c1-c1c(OC)cccc1OC` [Example 234, 3-{5-[(4-chlorophenyl)-methyl]-1,3,4-thiadiazol-2-yl}-5-(2,6-dimethoxyphenyl)-6-(ethoxymethyl)-pyridine-2,4-diol], the EC50 lay in the range of 10 to 100 nM.

Consider `CCOCc1nc(O)c(-c2nnc(CNC(=O)c3ccccn3)s2)c(O)c1-c1c(OC)cccc1OC` [Example 235, N-({5-[5-(2,6-dimethoxyphenyl)-6-(ethoxymethyl)-2,4-dihydroxypyridin-3-yl]-1,3,4-thiadiazol-2-yl}methyl) pyridine-2-carboxamide], for which the EC50 lay in the range of 10 to 100 nM.

For `CCOCc1nc(O)c(-c2nnc(Cc3ncc(Cl)cc3F)o2)c(O)c1-c1c(OC)cccc1OC` [Example 237, 3-{5-[(5-chloro-3-fluoropyridin-2-yl)methyl]-1,3,4-oxadiazol-2-yl}-5-(2,6-dimethoxyphenyl)-6-(ethoxymethyl) pyridine-2,4-diol], the EC50 was in the range of 0.01 to 10 nM.

As to `COc1cccc(OC)c1-c1c(C2CCCC2)nc(O)c(-c2nnc(Cc3ccc(Cl)cn3)o2)c1O` [Example 238, 3-{5-[(5-chloropyridin-2-yl)methyl]-1,3,4-oxadiazol-2-yl}-6-cyclopentyl-5-(2,6-dimethoxyphenyl) pyridine-2,4-diol], the EC50 is 0.01 to 10 nM.

Turning to `COc1cccc(OC)c1-c1c(C2CCCC2)[nH]c(=O)c(-c2nnc(Cc3ccc(Cl)cc3)o2)c1O` [Example 239, 3-{5-[(4-chlorophenyl)methyl]-1,3,4-oxadiazol-2-yl}-6-cyclopentyl-5-(2,6-dimethoxyphenyl) pyridine-2,4-diol], the EC50 lay within 0.01 to 10 nM.

As to `COCCOCc1nc(O)c(-c2nnc(Cc3ccc(Cl)cn3)o2)c(O)c1-c1c(OC)cccc1OC` [Example 240, 3-{5-[(5-chloropyridin-2-yl)methyl]-1,3,4-oxadiazol-2-yl}-5-(2,6-dimethoxyphenyl)-6-[(2-methoxyethoxy)methyl] pyridine-2,4-diol], the EC50 was in the range of 0.01 to 10 nM.

With `COCCOCc1nc(O)c(-c2nnc(Cc3noc4ccccc34)o2)c(O)c1-c1c(OC)cccc1OC` [Example 242, 3-{5-[(1,2-benzoxazol-3-yl)methyl]-1,3,4-oxadiazol-2-yl}-5-(2,6-dimethoxyphenyl)-6-[(2-methoxyethoxy)methyl]pyridine-2,4-diol], the EC50 was in the range of 10 to 100 nM.

In the case of `CCOCc1nc(O)c(-c2nnc(CNc3ccccc3)o2)c(O)c1-c1c(OC)cccc1OC` [Example 243, 5-(2,6-dimethoxyphenyl)-6-(ethoxymethyl)-3-{5-[(phenylamino)methyl]-1,3,4-oxadiazol-2-yl}pyridine-2,4-diol], the EC50 fell in the range of 10 to 100 nM.

`COCCOCc1nc(O)c(-c2nnc(Cc3ccc(Cl)cc3)o2)c(O)c1-c1c(OC)cccc1OC` [Example 244, 3-{5-[(4-chlorophenyl)methyl]-1,3,4-oxadiazol-2-yl}-5-(2,6-dimethoxyphenyl)-6-[(2-methoxyethoxy)methyl]pyridine-2,4-diol]: the EC50 was 10 to 100 nM.

For `CCCCc1nc(O)c(-c2nnc(CNC(=O)c3ccccc3)o2)c(O)c1-c1cc(OC)ccc1OC` [Example 246, N-({5-[6-butyl-5-(2,5-dimethoxyphenyl)-2,4-dihydroxy-pyridin-3-yl]-1,3,4-oxadiazol-2-yl}methyl) benzamide], the EC50 fell in the range of 0.01 to 10 nM.

In the case of `CCCCc1nc(O)c(-c2nnc(CNC(=O)c3ccccc3)o2)c(O)c1-c1cc(C(C)C)ccc1OC` [Example 247, N-[(5-{6-butyl-2,4-dihydroxy-5-[2-methoxy-5-(propan-2-yl)phenyl]pyridin-3-yl}-1,3,4-oxadiazol-2-yl)methyl] benzamide], the EC50 fell in the range of 0.01 to 10 nM.

On to `CCOCc1nc(O)c(-c2nnc(Cc3noc4ccccc34)o2)c(O)c1-c1ccccc1OC` [Example 248, 3-{5-[(1,2-benzoxazol-3-yl)methyl]-1,3,4-oxadiazol-2-yl}-6-(ethoxymethyl)-5-(2-methoxyphenyl) pyridine-2,4-diol], for which the EC50 fell in the range of 0.01 to 10 nM.

With `CCOCc1nc(O)c(-c2nnc(Cc3ccc(Cl)cc3)o2)c(O)c1-c1ccccc1OC` [Example 249, 3-{5-[(4-chlorophenyl)methyl]-1,3,4-oxadiazol-2-yl}-6-(ethoxymethyl)-5-(2-methoxyphenyl) pyridine-2,4-diol], the EC50 was 0.01 to 10 nM.

On to `CCCCc1nc(O)c(-c2nnc(CNC(=O)c3ccccc3)o2)c(O)c1-c1cccc(OC)c1OC` [Example 250, N-({5-[6-butyl-5-{2,3-dimethoxyphenyl)-2,4-dihydroxy-pyridin-3-yl]-1,3,4-oxadiazol-2-yl}methyl) benzamide], for which the EC50 was in the range of 0.01 to 10 nM.

Turning to `CCOCc1nc(O)c(-c2nnc(CNC(=O)c3ccccc3)o2)c(O)c1-c1ccccc1OC` [Example 251, N-({5-[6-(ethoxymethyl)-2,4-dihydroxy-5-(2-methoxyphenyl)-pyridin-3-yl]-1,3,4-oxadiazol-2-yl}methyl) benzamide], the EC50 was 0.01 to 10 nM.

In the case of `CCCCc1nc(O)c(-c2nnc(CC(=O)Nc3cccnc3)o2)c(O)c1-c1c(OC)cccc1OC` [Example 252, 2-{5-[6-butyl-5-(2,6-dimethoxyphenyl)-2,4-dihydroxy-pyridin-3-yl]-1,3,4-oxadiazol-2-yl}-N-(pyridin-3-yl)acetamide], the EC50 is 0.01 to 10 nM.

`CCOCc1nc(O)c(-c2nnc(CC(=O)Nc3nccs3)o2)c(O)c1-c1c(OC)cccc1OC` [Example 253, 2-{5-[5-(2,6-dimethoxyphenyl)-6-(ethoxymethyl)-2,4-dihydroxypyridin-3-yl]-1,3,4-oxadiazol-2-yl}-N-(1,3-thiazol-2-yl)acetamide]: the EC50 was 0.01 to 10 nM.

As to `CCCCc1nc(O)c(-c2nnc(CC(=O)NCc3nc4ccccc4s3)o2)c(O)c1-c1c(OC)cccc1OC` [Example 254, N-[(1,3-benzothiazol-2-yl)methyl]-2-{5-[6-butyl-5-(2,6-dimethoxyphenyl)-2,4-dihydroxypyridin-3-yl]-1,3,4-oxadiazol-2-yl}acetamide], the EC50 was 0.01 to 10 nM.

For `CCCCc1nc(O)c(-c2nnc(CC(=O)NCc3cccnc3)o2)c(O)c1-c1c(OC)cccc1OC` [Example 255, 2-{5-[6-butyl-5-(2,6-dimethoxyphenyl)-2,4-dihydroxy-pyridin-3-yl]-1,3,4-oxadiazol-2-yl}-N-[(pyridin-3-yl)methyl] acetamide], the EC50 lay in the range of 0.01 to 10 nM.

With `CCCCc1nc(O)c(-c2nnc(CC(=O)NCc3ncco3)o2)c(O)c1-c1c(OC)cccc1OC` [Example 256, 2-{5-[6-butyl-5-(2,6-dimethoxyphenyl)-2,4-dihydroxypyridin-3-yl]-1,3,4-oxadiazol-2-yl}-N-[(1,3-oxazol-2-yl)methyl] acetamide], the EC50 lay in the range of 0.01 to 10 nM.

Take `CCCCc1nc(O)c(-c2nnc(CC(=O)NCCc3ccc(S(N)(=O)=O)cc3)o2)c(O)c1-c1c(OC)cccc1OC` [Example 257, 2-{5-[6-butyl-5-(2,6-dimethoxyphenyl)-2,4-dihydroxy-pyridin-3-yl]-1,3,4-oxadiazol-2-yl}-N-[2-(4-sulfamoylphenyl)ethyl]acetamide]: the EC50 was in the range of 0.01 to 10 nM.

In the case of `CCCCc1nc(O)c(-c2nnc(CC(=O)NCCc3ccccc3Cl)o2)c(O)c1-c1c(OC)cccc1OC` [Example 258, 2-{5-[6-butyl-5-(2,6-dimethoxyphenyl)-2,4-dihydroxy-pyridin-3-yl]-1,3,4-oxadiazol-2-yl}-N-[2-(2-chlorophenyl)ethyl]acetamide], the EC50 was in the range of 0.01 to 10 nM.

In the case of `CCCCc1nc(O)c(-c2nnc(CC(=O)NCc3cccc(Cl)c3)o2)c(O)c1-c1c(OC)cccc1OC` [Example 259, 2-{5-[6-butyl-5-(2,6-dimethoxyphenyl)-2,4-dihydroxy-pyridin-3-yl]-1,3,4-oxadiazol-2-yl}-N-[(3-chlorophenyl)methyl]acetamide], the EC50 lay in the range of 0.01 to 10 nM.

As to `CCCCc1nc(O)c(-c2nnc(CC(=O)N(C)Cc3ccccc3)o2)c(O)c1-c1c(OC)cccc1OC` [Example 260, N-benzyl-2-{5-[6-butyl-5-(2,6-dimethoxyphenyl)-2,4-dihydroxy-pyridin-3-yl]-1,3,4-oxadiazol-2-yl}-N-methylacetamide], the EC50 was 0.01 to 10 nM.

The same assay, now with this note: hAPJ cAMP EC50 (nM) Potency range, HEK293 cells stably expressing human APJ receptor; inhibition of forskolin-mediated cAMP production.
Take `CCCCc1nc(O)c(-c2nnc(Cc3ncc(Cl)cc3F)o2)c(O)c1-c1c(OC)cccc1OC` [Example 236, 6-butyl-3-{5-[(5-chloro-3-fluoropyridin-2-yl)methyl]-1,3,4-oxadiazol-2-yl}-5-(2,6-dimethoxyphenyl) pyridine-2,4-diol]: the EC50 is 10 to 100 nM.
